Counter-ions that a name gives are not always drawn.
Target: T1, SIRT1 (Homo sapiens, UniProt Q96EB6)
T1 sequence (Q96EB6 1-747): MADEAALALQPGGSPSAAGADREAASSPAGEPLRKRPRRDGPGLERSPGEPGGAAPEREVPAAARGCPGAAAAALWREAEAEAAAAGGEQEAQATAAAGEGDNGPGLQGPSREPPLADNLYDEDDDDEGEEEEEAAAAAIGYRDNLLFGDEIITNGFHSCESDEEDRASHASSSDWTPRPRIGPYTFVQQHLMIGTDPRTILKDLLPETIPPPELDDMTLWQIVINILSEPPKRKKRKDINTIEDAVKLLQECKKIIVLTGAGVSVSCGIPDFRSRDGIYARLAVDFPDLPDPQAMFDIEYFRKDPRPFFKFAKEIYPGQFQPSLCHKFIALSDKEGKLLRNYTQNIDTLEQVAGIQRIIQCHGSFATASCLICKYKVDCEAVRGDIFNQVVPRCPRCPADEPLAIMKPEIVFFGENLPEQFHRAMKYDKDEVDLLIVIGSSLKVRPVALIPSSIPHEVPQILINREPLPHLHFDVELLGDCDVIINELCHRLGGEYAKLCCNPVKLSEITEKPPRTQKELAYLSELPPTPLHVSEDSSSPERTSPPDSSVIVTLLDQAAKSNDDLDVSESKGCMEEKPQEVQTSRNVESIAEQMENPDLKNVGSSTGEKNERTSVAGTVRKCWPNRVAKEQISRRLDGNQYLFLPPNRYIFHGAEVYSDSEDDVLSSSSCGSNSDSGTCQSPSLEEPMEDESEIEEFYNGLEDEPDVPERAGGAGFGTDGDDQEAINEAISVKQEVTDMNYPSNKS
Assay: Trp mass spectrometry assay of SIRT1 activity (EC1.5, percent maximum activation)
Assay type: biochemical
Details: Trp mass spectrometry assay; for TRP Activity (EC1.5): EC1.5 = concentration giving 150% activation of SIRT1; for TRP MAX RESP (percent maximum fold activation): percent maximum activation of SIRT1
How it was run: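 Sirtuin deacetylation was run with purified N-His SIRT1 and the 5TMR Trp peptide across a compound titration, stopped after 25 min by acidification, and analysed by MS for OAADPR. Endpoint lay within the linear range.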

Structure (SMILES)	TRP Activity (EC1.5)	TRP MAX RESP (percent maximum fold activation)
O=C(Nc1cc(OC[C@H](O)CO)ccn1)N1c2nc(-c3cccc(C(F)(F)F)c3)c(Cl)cc2N2CC[C@H]1C2 [Example 32, (4S)-8-chloro-N-(4-((R)-2,3-dihydroxypropoxy)pyridin-2-yl)-7-(3-(trifluoromethyl)phenyl)-3,4-dihydro-1,4-methanopyrido[2,3-b][1,4]diazepine-5(2H)-carboxamide, Hydrochloride]	B (EC1.5 1-25 μM)	A (Fold activation ≧150%)
O=C(Nc1cnc(OC[C@@H](O)CO)cn1)N1c2nc(-c3cccc(C(F)(F)F)c3)c(Cl)cc2N2CC[C@H]1C2 [Example 33, (4S)-8-chloro-N-(5-((S)-2,3-dihydroxypropoxy)pyrazin-2-yl)-7-(3-(trifluoromethyl)phenyl)-3,4-dihydro-1,4-methanopyrido[2,3-b][1,4]diazepine-5(2H)-carboxamide]	B (EC1.5 1-25 μM)	A (Fold activation ≧150%)
O=C(Nc1cnc(OC[C@H](O)CO)cn1)N1c2nc(-c3cccc(C(F)(F)F)c3)c(Cl)cc2N2CC[C@H]1C2 [Example 34, (4S)-8-chloro-N-(5-((R)-2,3-dihydroxypropoxy)pyrazin-2-yl)-7-(3-(trifluoromethyl)phenyl)-3,4-dihydro-1,4-methanopyrido[2,3-b][1,4]diazepine-5(2H)-carboxamide]	B (EC1.5 1-25 μM)	A (Fold activation ≧150%)
O=C(Nc1ccccn1)N1c2nc(-c3cccc(C(F)(F)F)c3)c(Cl)cc2N2CC[C@H]1C2 [Example 35, (4S)-8-chloro-N-(pyridin-2-yl)-7-(3-(trifluoromethyl)phenyl)-3,4-dihydro-1,4-methanopyrido[2,3-b][1,4]diazepine-5(2H)-carboxamide]	A (EC1.5<1 μM)	A (Fold activation ≧150%)
Cc1cc(-c2nc3c(cc2C)N2CC[C@@H](C2)N3C(=O)Nc2ccccn2)ccn1 [Example 36, (4S)-8-methyl-7-(2-methylpyridin-4-yl)-N-(pyridin-2-yl)-3,4-dihydro-1,4-methanopyrido[2,3-b][1,4]diazepine-5(2H)-carboxamide]	B (EC1.5 1-25 μM)	A (Fold activation ≧150%)
Cc1cc(-c2nc3c(cc2Cl)N2CC[C@@H](C2)N3C(=O)Nc2ccnc(OC[C@@H](O)CO)c2)ccn1 [Example 37, (4S)-8-chloro-N-(2-((S)-2,3-dihydroxypropoxy)pyridin-4-yl)-7-(2-methylpyridin-4-yl)-3,4-dihydro-1,4-methanopyrido[2,3-b][1,4]diazepine-5(2H)-carboxamide]	B (EC1.5 1-25 μM)	A (Fold activation ≧150%)
Cc1cc(-c2nc3c(cc2Cl)N2CC[C@@H](C2)N3C(=O)Nc2cc(OC[C@H](O)CO)ccn2)ccn1 [Example 38, (4S)-8-chloro-N-(4-((R)-2,3-dihydroxypropoxy)pyridin-2-yl)-7-(2-methylpyridin-4-yl)-3,4-dihydro-1,4-methanopyrido[2,3-b][1,4]diazepine-5(2H)-carboxamide]	B (EC1.5 1-25 μM)	A (Fold activation ≧150%)
Cc1cc(-c2nc3c(cc2Cl)N2CC[C@@H](C2)N3C(=O)Nc2ccnc(OC[C@H](O)CO)c2)ccn1 [Example 39, (4S)-8-chloro-N-(2-((R)-2,3-dihydroxypropoxy)pyridin-4-yl)-7-(2-methylpyridin-4-yl)-3,4-dihydro-1,4-methanopyrido[2,3-b][1,4]diazepine-5(2H)-carboxamide]	B (EC1.5 1-25 μM)	A (Fold activation ≧150%)
Cc1cc(-c2nc3c(cc2Cl)N2CC[C@@H](C2)N3C(=O)Nc2cnc(OC[C@@H](O)CO)cn2)ccn1 [Example 40, (4S)-8-chloro-N-(5-((S)-2,3-dihydroxypropoxy)pyrazin-2-yl)-7-(2-methylpyridin-4-yl)-3,4-dihydro-1,4-methanopyrido[2,3-b][1,4]diazepine-5(2H)-carboxamide]	B (EC1.5 1-25 μM)	A (Fold activation ≧150%)
Cc1cc(-c2nc3c(cc2Cl)N2CC[C@@H](C2)N3C(=O)Nc2cccc(OC[C@H](O)CO)n2)ccn1 [Example 41, (4S)-8-chloro-N-(6-((R)-2,3-dihydroxypropoxy)pyridin-2-yl)-7-(2-methylpyridin-4-yl)-3,4-dihydro-1,4-methanopyrido[2,3-b][1,4]diazepine-5(2H)-carboxamide]	B (EC1.5 1-25 μM)	A (Fold activation ≧150%)
O=C(Nc1ccnc(OCCCO)n1)N1c2nc(-c3cccc(C(F)(F)F)c3)c(Cl)cc2N2CC[C@H]1C2 [Example 42, (4S)-8-chloro-N-(2-(3-hydroxypropoxy)pyrimidin-4-yl)-7-(3-(trifluoromethyl)phenyl)-3,4-dihydro-1,4-methanopyrido[2,3-b][1,4]diazepine-5(2H)-carboxamide]	A (EC1.5<1 μM)	A (Fold activation ≧150%)
CC(C)(CO)COc1cncc(NC(=O)N2c3nc(-c4cccc(C(F)(F)F)c4)c(Cl)cc3N3CC[C@H]2C3)n1 [Example 43, (4S)-8-chloro-N-(6-(3-hydroxy-2,2-dimethylpropoxy)pyrazin-2-yl)-7-(3-(trifluoromethyl)phenyl)-3,4-dihydro-1,4-methanopyrido[2,3-b][1,4]diazepine-5(2H)-carboxamide]	B (EC1.5 1-25 μM)	A (Fold activation ≧150%)
Cc1cc(-c2nc3c(cc2Cl)N2CC[C@@H](C2)N3C(=O)Nc2cc(OC[C@@H](O)CO)ncn2)ccn1 [Example 44, (4S)-8-chloro-N-(6-((S)-2,3-dihydroxypropoxy)pyrimidin-4-yl)-7-(2-methylpyridin-4-yl)-3,4-dihydro-1,4-methanopyrido[2,3-b][1,4]diazepine-5(2H)-carboxamide]	C (EC1.5>25 μM)	B (Fold Activation <150%)
O=C(Nc1cncc(OC[C@@H](O)CO)n1)N1c2nc(-c3cccc(C(F)(F)F)c3)c(Cl)cc2N2CC[C@H]1C2 [Example 45, (4S)-8-chloro-N-(6-((S)-2,3-dihydroxypropoxy)pyrazin-2-yl)-7-(3-(trifluoromethyl)phenyl)-3,4-dihydro-1,4-methanopyrido[2,3-b][1,4]diazepine-5(2H)-carboxamide]	A (EC1.5<1 μM)	A (Fold activation ≧150%)
O=C(Nc1nccc(OC[C@H](O)CO)n1)N1c2nc(-c3cccc(C(F)(F)F)c3)c(Cl)cc2N2CC[C@H]1C2 [Example 46, (4S)-8-chloro-N-(4-((R)-2,3-dihydroxypropoxy)pyrimidin-2-yl)-7-(3-(trifluoromethyl)phenyl)-3,4-dihydro-1,4-methanopyrido[2,3-b][1,4]diazepine-5(2H)-carboxamide]	A (EC1.5<1 μM)	A (Fold activation ≧150%)
Cc1cc(-c2nc3c(cc2Cl)N2CC[C@@H](C2)N3C(=O)Nc2cc(F)cc(-c3cccnc3)c2)ccn1 [Example 47, (4S)-8-chloro-N-(3-fluoro-5-(pyridin-3-yl)phenyl)-7-(2-methylpyridin-4-yl)-3,4-dihydro-1,4-methanopyrido[2,3-b][1,4]diazepine-5(2H)-carboxamide]	B (EC1.5 1-25 μM)	A (Fold activation ≧150%)
CC(C)(O)CCOc1nccc(NC(=O)N2c3nc(-c4cccc(C(F)(F)F)c4)c(Cl)cc3N3CC[C@H]2C3)n1 [Example 48, (4S)-8-chloro-N-(2-(3-hydroxy-3-methylbutoxy)pyrimidin-4-yl)-7-(3-(trifluoromethyl)phenyl)-3,4-dihydro-1,4-methanopyrido[2,3-b][1,4]diazepine-5(2H)-carboxamide]	B (EC1.5 1-25 μM)	A (Fold activation ≧150%)

From patent publication US20170355705A1 (GlaxoSmithKline Intellectual Property (No.2) Limited, priority 2014, published 2017)
